Laboratory results reported in US9776972B2, “Pyrazole derivatives as arginine methyltransferase inhibitors and uses thereof” (priority 2013, dated 2017).
pIC50: −log10 of the molar value. Where a name gives a salt, the structure may show the parent alone.

Molecular target: T1, Human CARM1 (PRMT4) (Homo sapiens, UniProt Q86X55)
T1 construct: Flag-CARM1-His; made in house; host or cells: HEK 293F cells (BacMam baculovirus)
T1 sequence (Q86X55 1-585 isoform Q86X55-1): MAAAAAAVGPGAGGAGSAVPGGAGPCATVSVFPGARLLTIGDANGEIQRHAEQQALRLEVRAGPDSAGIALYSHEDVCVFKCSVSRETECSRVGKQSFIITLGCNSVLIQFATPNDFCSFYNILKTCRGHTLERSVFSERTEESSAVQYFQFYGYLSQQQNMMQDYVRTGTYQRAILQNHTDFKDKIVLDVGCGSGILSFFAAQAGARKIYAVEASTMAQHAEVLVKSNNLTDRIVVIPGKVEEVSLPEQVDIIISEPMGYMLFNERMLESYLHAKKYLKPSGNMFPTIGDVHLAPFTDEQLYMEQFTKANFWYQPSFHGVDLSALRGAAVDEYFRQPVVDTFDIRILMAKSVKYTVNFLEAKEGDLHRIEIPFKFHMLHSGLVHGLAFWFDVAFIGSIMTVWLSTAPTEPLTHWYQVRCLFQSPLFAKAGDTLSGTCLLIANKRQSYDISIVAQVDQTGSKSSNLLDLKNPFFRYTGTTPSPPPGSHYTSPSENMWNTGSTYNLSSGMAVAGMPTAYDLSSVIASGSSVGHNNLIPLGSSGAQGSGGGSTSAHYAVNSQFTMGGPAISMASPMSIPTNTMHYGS
Assay: CARM1 Biochemical Assay (3H-SAM Flashplate, peptide substrate)
Details: not given
Excerpt: S-adenosylmethionine (SAM), S-adenosylhomocysteine (SAH), bicine, Tween20, dimethylsulfoxide (DMSO), bovine skin gelatin (BSG), sodium butyrate and Tris(2-carboxyethyl)phosphine hydrochloride solution (TCEP) were purchased from Sigma-Aldrich at the highest level of purity possible. ^3H-SAM was purchase from American Radiolabeled Chemicals with a specific activity of 80 Ci/mmol. 384-well streptavidin Flashplates were purchased from PerkinElmer.
Peptide representative of human histone H3 residues 16-30 was synthesized with an N-terminal linker-affinity tag motif and a C-terminal amide cap by 21st Century Biochemicals. […] The sequence was Biot-Ahx-[…]-amide and contained a monomethylated arginine at position 26 (SEQ ID NO.: 14).
Recombinant baculovirus were generated according to Bac-to-Bac kit instructions (Life Technologies). […] Infections were carried out at 37° C. for 48 hours, harvested by centrifugation, and stored at −80° C. for purification.
Column was washed with 500 mM NaCl in buffer A and Flag-CARM1-His was eluted with 200 ug/ml FLAG peptide in buffer A. Pooled fractions were dialyzed in 20 mM Tris, 150 mM NaCl, 5% glycerol and 1 mM DTT, pH 7.8.
General Procedure for CARM1 Enzyme Assays on Peptide Substrates.
The assays were all performed in a buffer consisting of 20 mM Bicine (pH=7.6), 1 mM TCEP, 0.005% BSG, and 0.002% Tween 20, prepared on the day of use. […] DMSO (1 ul) was added to Columns 11, 12, 23, 24, rows A-H for the maximum signal control and 1 ul of SAH, a known product and inhibitor of CARM1, was added to columns 11, 12, 23, 24, rows I-P for the minimum signal control. A cocktail (40 ul) containing the CARM1 enzyme was added by Multidrop Combi (Thermo-Fisher). The compounds were allowed to incubate with CARM1 for 30 min at room temperature, then a cocktail (10 ul) containing ^3H-SAM and peptide was added to initiate the reaction (final volume=51 ul). […] The assays were stopped by the addition of non-radiolabeled SAM (10 ul) to a final concentration of 300 uM, which dilutes the ^3H-SAM to a level where its incorporation into the peptide substrate is no longer detectable. 50 ul of the reaction in the 384-well polypropylene plate was then transferred to a 384-well Flashplate and the biotinylated peptides were allowed to bind to the streptavidin surface for at least 1 hour before being washed once with 0.1% Tween20 in a Biotek ELx405 plate washer. The plates were then read in a PerkinElmer TopCount plate reader to measure the quantity of ^3H-labeled peptide bound to the Flashplate surface, measured as disintegrations per minute (dpm) or alternatively, referred to as counts per minute (cpm).
Where dpm=disintegrations per minute, cmpd=signal in assay well, and min and max are the respective minimum and maximum signal controls.
Where top and bottom are the normally allowed to float, but may be fixed at 100 or 0 respectively in a 3-parameter fit. The Hill Coefficient normally allowed to float but may also be fixed at 1 in a 3-parameter fit. Y is the % inhibition and X is the compound concentration.

SMILES	pIC50
CNCCN(C)Cc1cnn(C)c1-c1ccc(OC(C)C)cc1 [Compound 244, hydrochloride]	> 7.00

Same assay, conditions: single experiment or average of multiple experiments

SMILES	pIC50
CCn1cc(CN(C)CCNC)c(-c2ccc(F)cc2)n1 [Compound 8]	5.46
CC(C)Oc1ccc(-c2n[nH]cc2CN(C)CCN)cc1F [Compound 97]	6.29
CN(CCN)Cc1n[nH]cc1-c1ccc(C#N)cc1 [Compound 100]	5.38
CC(C)c1ccc(-c2c[nH]nc2CN(C)CCN)cc1 [Compound 101]	5.32
Cc1ccc(-c2n[nH]cc2CN(C)CCN)c(F)c1 [Compound 108]	5.82
Cc1cc(C#N)ccc1-c1n[nH]cc1CN(C)CCN [Compound 110]	5.06
CN(CCN)Cc1c[nH]nc1-c1cc(F)cc(F)c1 [Compound 111]	6.34
CC(=O)c1cccc(-c2n[nH]cc2CN(C)CCN)c1 [Compound 112]	5.61
CN(CCN)Cc1c[nH]nc1-c1ccc(C2CC2)cc1 [Compound 116]	5.91
CN(CCN)Cc1c[nH]nc1-c1ccc(C(F)(F)F)c(Cl)c1 [Compound 117]	6.22
CN(CCN)Cc1c[nH]nc1-c1ccc(Cl)c(F)c1 [Compound 118]	6.94
CN(CCN)Cc1c[nH]nc1-c1cc(F)cc(Cl)c1 [Compound 121]	6.67
CN(CCN)Cc1c[nH]nc1-c1cccc(Cl)c1F [Compound 123]	5.73
COc1ccc(-c2n[nH]cc2CN(C)CCN)cc1Cl [Compound 125]	5.84
Cc1ccc(-c2n[nH]cc2CN(C)CCN)cc1Cl [Compound 126]	6.99
COc1cc(Cl)cc(-c2n[nH]cc2CN(C)CCN)c1 [Compound 127]	5.95
Cc1c(F)cccc1-c1n[nH]cc1CN(C)CCN [Compound 129]	5.62
COc1cccc(-c2n[nH]cc2CN(C)CCN)c1 [Compound 130]	5.62
Cc1cccc(-c2n[nH]cc2CN(C)CCN)c1 [Compound 131]	5.93
CN(CCN)Cc1c[nH]nc1-c1ccc(Cl)cc1F [Compound 132]	5.67
Cc1cc(Cl)ccc1-c1n[nH]cc1CN(C)CCN [Compound 133]	5.37
CCNC(=O)c1ccc(-c2n[nH]cc2CN(C)CCN)cc1 [Compound 136]	5.68
CN(CCN)Cc1n[nH]cc1-c1ccc(OC(F)F)cc1 [Compound 138]	5.57
COc1cc(-c2n[nH]cc2CN(C)CCN)ccc1F [Compound 142]	5.89
CC(C)Oc1ccc(-c2c[nH]nc2CN(C)CCN)cc1F [Compound 144]	5.34
CNCCN(C)Cc1cnn(C)c1-c1ccc(OC(C)C)cc1 [Compound 244, hydrochloride]	7.03

Second part, the compound after the results:

pIC50	SMILES
5.57	CCn1ncc(CN(C)CCNC)c1-c1ccc(F)cc1 [Compound 7]
7.12	CN(CCN)Cc1c[nH]nc1-c1ccc(OCC(F)(F)F)cc1 [Compound 96]
6.36	CN(CCN)Cc1c[nH]nc1-c1ccc(C2CCOCC2)cc1 [Compound 98]
5.12	CN(CCN)Cc1c[nH]nc1-c1ccc(F)cc1F [Compound 99]
5.97	CN(CCN)Cc1n[nH]cc1-c1ccc(Cl)cc1 [Compound 102]
5.83	CN(CCN)Cc1n[nH]cc1-c1ccc(C(F)(F)F)cc1 [Compound 103]
5.71	CN(CCN)Cc1n[nH]cc1-c1ccc(C2CC2)cc1 [Compound 104]
5.51	CN(CCN)Cc1n[nH]cc1-c1ccc(OC(F)(F)F)cc1 [Compound 105]
5.54	COc1ccc(-c2n[nH]cc2CN(C)CCN)c(F)c1 [Compound 107]
5.28	COc1ccccc1-c1n[nH]cc1CN(C)CCN [Compound 109]
6.48	CN(CCN)Cc1c[nH]nc1-c1ccc(OC2CC2)cc1 [Compound 114]
5.45	CC(O)c1ccc(-c2n[nH]cc2CN(C)CCN)cc1 (stereo not shown) [Compound 115]
6.36	CN(CCN)Cc1n[nH]cc1-c1ccc(OC2CC2)cc1 [Compound 119]
6.39	CN(CCN)Cc1c[nH]nc1-c1cccc(Cl)c1 [Compound 122]
6.26	CN(CCN)Cc1c[nH]nc1-c1ccc(F)c(Cl)c1 [Compound 124]
5.58	COc1ccc(-c2n[nH]cc2CN(C)CCN)cc1F [Compound 134]
6.07	CN(CCN)Cc1c[nH]nc1-c1cc(Cl)cc(Cl)c1 [Compound 137]
5.86	CN(CCN)Cc1c[nH]nc1-c1ccc(C(F)(F)F)c(F)c1 [Compound 141]
5.23	CCN(CC)C(=O)c1ccc(-c2n[nH]cc2CN(C)CCN)cc1 [Compound 143]
